Test system: 991263-137-R1-J2-PDC complex spheroid viability
Experiment: Anticancer human tumor 991263-137-R1-J2-PDC patient-derived colon adenocarcinoma cell line growth inhibition [POLQ]
Settings: for IC50: curve of first compound; for viability, T/C: stronger effect = lower value
Method in brief: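 Complex spheroid viability model combining PDC tumour cells with endothelial (HUVEC) and MSC stromal cells. Novobiocin, ART-558 or RP6685 were tested singly and in combination with standard and investigational anticancer drugs. Each was titrated in half-log steps from near clinical Cmax, or from 10 microM where Cmax was unknown.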

[1] = second compound 0.0316 µM, first compound 0.0316 µM
[2] = second compound 0.0316 µM, first compound 0.1 µM
[3] = second compound 0.0316 µM, first compound 0.316 µM
[4] = second compound 0.0316 µM, first compound 1 µM
[5] = second compound 0.0316 µM, first compound 3.16 µM
[6] = second compound 0.0316 µM, first compound 10 µM
[7] = second compound 0.1 µM, first compound 0.0316 µM
[8] = second compound 0.1 µM, first compound 0.1 µM
[9] = second compound 0.1 µM, first compound 0.316 µM
[10] = second compound 0.1 µM, first compound 1 µM
[11] = second compound 0.1 µM, first compound 3.16 µM
[12] = second compound 0.1 µM, first compound 10 µM
[13] = second compound 0.316 µM, first compound 0.0316 µM
[14] = second compound 0.316 µM, first compound 0.1 µM
[15] = second compound 0.316 µM, first compound 0.316 µM
[16] = second compound 0.316 µM, first compound 1 µM
[17] = second compound 0.316 µM, first compound 3.16 µM
[18] = second compound 0.316 µM, first compound 10 µM
[19] = second compound 1 µM, first compound 0.0316 µM
[20] = second compound 1 µM, first compound 0.1 µM
[21] = second compound 1 µM, first compound 0.316 µM
[22] = second compound 1 µM, first compound 1 µM
[23] = second compound 1 µM, first compound 3.16 µM
[24] = second compound 1 µM, first compound 10 µM
[25] = second compound 3.16 µM, first compound 0.0316 µM
[26] = second compound 3.16 µM, first compound 0.1 µM
[27] = second compound 3.16 µM, first compound 0.316 µM
[28] = second compound 3.16 µM, first compound 1 µM
[29] = second compound 3.16 µM, first compound 3.16 µM
[30] = second compound 3.16 µM, first compound 10 µM
[31] = second compound 10 µM, first compound 0.0316 µM
[32] = second compound 10 µM, first compound 0.1 µM
[33] = second compound 10 µM, first compound 0.316 µM
[34] = second compound 10 µM, first compound 1 µM
[35] = second compound 10 µM, first compound 3.16 µM
[36] = second compound 10 µM, first compound 10 µM
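Note: spheroids exposed to compounds for 7 days before readout.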
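Throughout, for viability, T/C: 100% = DMSO vehicle control viability.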

Compound `COc1cccc2c1C(=O)c1c(O)c3c(c(O)c1C2=O)CC(O)(C(=O)CO)CC3OC1CC(N)C(O)C(C)O1` (stereo unspecified) + Nc1ccc(C#CCN(C(=O)Cc2ncc(C(F)(F)F)cc2C(F)(F)F)c2ccc(F)cc2)nn1 has an IC50 (second compound 0.0316 µM) of 1.27 µM, an IC50 (second compound 0.1 µM) of 1.48 µM and an IC50 (second compound 0.316 µM) of 1.25 µM. It also gave an IC50 (second compound 1 µM) of 1.04 µM, an IC50 (second compound 3.16 µM) of 0.822 µM and an IC50 (second compound 10 µM) of 0.614 µM. For the same compound, the viability, T/C [1] was 102%, the viability, T/C [2] was 92.4% and the viability, T/C [3] was 92.8%. For the same compound, the viability, T/C [4] was 51.7%, the viability, T/C [5] was 43.4% and the viability, T/C [6] was 42.6%. The viability, T/C [7] was 103%, the viability, T/C [8] was 97.8% and the viability, T/C [9] was 91.5%. For the same compound, the viability, T/C [10] was 53.2%, the viability, T/C [11] was 45.1% and the viability, T/C [12] was 40.2%. The viability, T/C [13] was 94.7%, the viability, T/C [14] was 98% and the viability, T/C [15] was 91.9%. For the same compound, the viability, T/C [16] was 53%, the viability, T/C [17] was 38% and the viability, T/C [18] was 35.1%. The viability, T/C [19] was 88.6%, the viability, T/C [20] was 109% and the viability, T/C [21] was 81.8%. It also gave a viability, T/C [22] of 52%, a viability, T/C [23] of 37.4% and a viability, T/C [24] of 37.4%. The viability, T/C [25] was 90.6%, the viability, T/C [26] was 94.3% and the viability, T/C [27] was 76.9%. For the same compound, the viability, T/C [28] was 43.8%, the viability, T/C [29] was 38.4% and the viability, T/C [30] was 28.8%. It also gave a viability, T/C [31] of 91.6%, a viability, T/C [32] of 88.4% and a viability, T/C [33] of 61.2%. The viability, T/C [34] was 39.3%, the viability, T/C [35] was 28.8% and the viability, T/C [36] was 16.4%.
`Nc1ccn(C2OC(CO)C(O)C2(F)F)c(=O)n1` (stereo unspecified) + Nc1ccc(C#CCN(C(=O)Cc2ncc(C(F)(F)F)cc2C(F)(F)F)c2ccc(F)cc2)nn1 was tested, and the IC50 (second compound 0.0316 µM) was 5.74 µM, the IC50 (second compound 0.1 µM) was > 10 µM and the IC50 (second compound 0.316 µM) was 5.3 µM. For the same compound, the IC50 (second compound 1 µM) was > 10 µM, the IC50 (second compound 3.16 µM) was > 10 µM and the IC50 (second compound 10 µM) was > 10 µM. The viability, T/C [1] was 96.1%, the viability, T/C [2] was 75.6% and the viability, T/C [3] was 64.4%. For the same compound, the viability, T/C [4] was 58.4%, the viability, T/C [5] was 55.2% and the viability, T/C [6] was 45.8%. For the same compound, the viability, T/C [7] was 89.6%, the viability, T/C [8] was 77.5% and the viability, T/C [9] was 59.2%. The viability, T/C [10] was 61.7%, the viability, T/C [11] was 59.9% and the viability, T/C [12] was 47.6%. The viability, T/C [13] was 94.3%, the viability, T/C [14] was 74.1% and the viability, T/C [15] was 65.9%. The viability, T/C [16] was 64.2%, the viability, T/C [17] was 57.3% and the viability, T/C [18] was 43.1%. For the same compound, the viability, T/C [19] was 92.6%, the viability, T/C [20] was 68.3% and the viability, T/C [21] was 69.5%. For the same compound, the viability, T/C [22] was 59.8%, the viability, T/C [23] was 55.8% and the viability, T/C [24] was 50.2%. It also gave a viability, T/C [25] of 104%, a viability, T/C [26] of 82.1% and a viability, T/C [27] of 69.4%. For the same compound, the viability, T/C [28] was 62.5%, the viability, T/C [29] was 63.4% and the viability, T/C [30] was 51.2%. The viability, T/C [31] was 104%, the viability, T/C [32] was 89.6% and the viability, T/C [33] was 71.1%. The viability, T/C [34] was 69.5%, the viability, T/C [35] was 64.3% and the viability, T/C [36] was 60.7%.
With `O=c1[nH]cc(F)c(=O)[nH]1` + Nc1ccc(C#CCN(C(=O)Cc2ncc(C(F)(F)F)cc2C(F)(F)F)c2ccc(F)cc2)nn1 the IC50 (second compound 0.0316 µM) was > 10 µM, the IC50 (second compound 0.1 µM) was > 10 µM and the IC50 (second compound 0.316 µM) was > 10 µM. The IC50 (second compound 1 µM) was > 10 µM, the IC50 (second compound 3.16 µM) was > 10 µM and the IC50 (second compound 10 µM) was > 10 µM. The viability, T/C [1] was 118%, the viability, T/C [2] was 112% and the viability, T/C [3] was 96.5%. The viability, T/C [4] was 97.1%, the viability, T/C [5] was 89.4% and the viability, T/C [6] was 89.3%. It also gave a viability, T/C [7] of 113%, a viability, T/C [8] of 115% and a viability, T/C [9] of 96%. It also gave a viability, T/C [10] of 101%, a viability, T/C [11] of 87% and a viability, T/C [12] of 80.9%. For the same compound, the viability, T/C [13] was 94.5%, the viability, T/C [14] was 104% and the viability, T/C [15] was 101%. For the same compound, the viability, T/C [16] was 93%, the viability, T/C [17] was 85.6% and the viability, T/C [18] was 86.1%. For the same compound, the viability, T/C [19] was 117%, the viability, T/C [20] was 114% and the viability, T/C [21] was 111%. The viability, T/C [22] was 90.2%, the viability, T/C [23] was 92.4% and the viability, T/C [24] was 86%. For the same compound, the viability, T/C [25] was 116%, the viability, T/C [26] was 106% and the viability, T/C [27] was 86.9%. The viability, T/C [28] was 89%, the viability, T/C [29] was 92.2% and the viability, T/C [30] was 78.4%. For the same compound, the viability, T/C [31] was 126%, the viability, T/C [32] was 101% and the viability, T/C [33] was 92.6%. It also gave a viability, T/C [34] of 85%, a viability, T/C [35] of 83.4% and a viability, T/C [36] of 84.9%.
